According to ChEMBL document CHEMBL6182833, “Design, synthesis and antiviral evaluation of triazole-linked 7-hydroxycoumarin-monoterpene conjugates as inhibitors of RSV replication” (RSC Med Chem, 2025):
The source made the active and inactive calls. No cut-off for these calls is given here.

Columns and labels:
[1] = system: Human orthopneumovirus; assay: Antiviral activity against Respiratory syncytial virus type B infected in human HEp-2 cells assessed as inhibition of viral replication preincubated with cells followed by viral infection for 1 hr followed by virus washout and further incubated with compound for 6 days by ELISA method; assay type: functional, organism-based
[2] = Selectivity index, ratio of CC50 for human HEp-2 cells to IC50 for Respiratory syncytial virus type A infected in human HEp-2 cells; assay type: cell-based; details: read-out: Ratio CC50/IC50
[3] = Selectivity index, ratio of CC50 for human HEp-2 cells to IC50 for Respiratory syncytial virus type B infected in human HEp-2 cells; assay type: cell-based; details: read-out: Ratio CC50/IC50
[4] = system: Human orthopneumovirus; assay: Antiviral activity against Respiratory syncytial virus type A infected in human HEp-2 cells assessed as inhibition of viral replication preincubated with cells followed by viral infection for 1 hr followed by virus washout and further incubated with compound for 6 days by ELISA method; assay type: functional, organism-based
[5] = system: HEp-2; assay: Cytotoxicity against human HEp-2 cells assessed as cell growth inhibition measured after 24 hrs by MTT assay; assay type: functional
[6] = system: Human orthopneumovirus; assay: Antiviral activity against Respiratory syncytial virus type A infected in human HEp-2 cells assessed as inhibition of viral replication preincubated with cells followed by compound washout followed by viral infection and measured after 25 hrs by ELISA method; assay type: functional, organism-based
[7] = system: Human orthopneumovirus; assay: Antiviral activity against Respiratory syncytial virus type A infected in human HEp-2 cells assessed as inhibition of viral replication preincubated with cells and simultaneously with virus and measured after 25 hrs by ELISA method; assay type: functional, organism-based

Structure (SMILES) | EC50 [1] [µM] | selectivity ratio [2] | selectivity ratio [3] | IC50 ([4]; read-out: IC50) [µM] | CC50 [5] [µM] | IC50 ([1]; read-out: IC50) [µM] | Activity [6] | Activity [7] | IC50 ([1]; read-out: pIC50 (converted)) [µM] | IC50 ([4]; read-out: pIC50 (converted)) [µM]
CC1(C)[C@H]2CC=C(COc3ccc4c5c(c(=O)oc4c3)CCC5)[C@@H]1C2 | > 13 | < 1 | 0.9 | > 13 | 13.4 |  |  |  |  | 
CC1(C)[C@H]2CC=C(COc3ccc4c5c(c(=O)oc4c3)CCCC5)[C@@H]1C2 |  | 3.5 | 5.5 | 108 | 334 | 60.5 |  |  |  | 
CC(C)c1ccc(Cn2cc(COc3ccc4c(-c5ccccc5)cc(=O)oc4c3)nn2)cc1 |  | 17 | 12.9 | 4.9 | 85.7 | 6.6 |  |  |  | 
Cc1cc(=O)oc2cc(OCc3cn(Cc4ccc(C(C)C)cc4)nn3)ccc12 |  | 9 | 6.3 | 2.2 | 20 | 3.2 |  |  |  | 
CC(C)CCCC(C)CCn1cc(COc2ccc3c4c(c(=O)oc3c2)CCC4)nn1 (stereo not drawn) |  | 160 | 1150 | 1.7 | 264 | 0.23 | Weak_effect | Weak_effect | 5.25 | 4.07
CC1(C)[C@@H]2CC=C(Cn3cc(COc4ccc5c(-c6ccccc6)cc(=O)oc5c4)nn3)[C@H]1C2 |  | 10 | 6.8 | 4.2 | 43.4 | 6.3 |  |  |  | 
NC(=O)c1ncn([C@@H]2O[C@H](CO)[C@@H](O)[C@H]2O)n1 [RIBAVIRIN] |  |  |  | 31.1 | > 4100 | 54.5 |  |  |  | 
CC(C)=CCC/C(C)=C\Cn1cc(COc2ccc3c(C)cc(=O)oc3c2)nn1 |  | > 96 | 13.4 | < 0.2 | 14.7 | 1.1 |  |  | 1.1 | 0.151
CC1(C)[C@H]2CC=C(Cn3cc(COc4ccc5c(-c6ccccc6)cc(=O)oc5c4)nn3)[C@@H]1C2 |  | > 88 | 8.5 | < 0.2 | 13.7 | 1.6 |  |  |  | 
CC(C)CCCC(C)CCn1cc(COc2ccc3c(-c4ccccc4)cc(=O)oc3c2)nn1 (stereo not drawn) |  | 3.5 | 2.8 | 4.1 | 14.6 | 5.2 |  |  | 0.229 | 1.66
CC(C)=CCCC(C)=CCn1cc(COc2ccc3c4c(c(=O)oc3c2)CCCC4)nn1 |  | 605 | 233 | 0.46 | 279 | 1.2 |  | inactive | 1.2 | 0.457
CC(C)c1ccc(Cn2cc(COc3ccc4c5c(c(=O)oc4c3)CCC5)nn2)cc1 |  | 1.8 | 1.5 | 21.7 | 38.5 | 25.6 |  |  |  | 
Cc1cc(=O)oc2cc(OCc3cn(CC4=CC[C@H]5C[C@@H]4C5(C)C)nn3)ccc12 |  | 2.2 | 2 | 6.4 | 14.3 | 7 |  |  |  | 
CC1(C)[C@@H]2CC=C(Cn3cc(COc4ccc5c6c(c(=O)oc5c4)CCC6)nn3)[C@H]1C2 |  | 7.6 | 7.3 | 6.9 | 52.7 | 7.2 |  |  |  | 
Cc1cc(=O)oc2cc(OCC3=CC[C@@H]4C[C@H]3C4(C)C)ccc12 |  | 90 | 24.7 | 1.3 | 116 | 4.7 |  |  |  | 
Cc1cc(=O)oc2cc(OCC3=CC[C@H]4C[C@@H]3C4(C)C)ccc12 |  | 27.4 | 3.3 | 29 | 796 | 241 |  |  |  | 

Structure (SMILES) | EC50 [1] [µM] | selectivity ratio [2] | selectivity ratio [3] | IC50 ([4]; read-out: IC50) [µM] | CC50 [5] [µM] | IC50 ([1]; read-out: IC50) [µM] | Activity [6] | Activity [7] | IC50 ([1]; read-out: pIC50 (converted)) [µM] | IC50 ([4]; read-out: pIC50 (converted)) [µM]
CC1(C)[C@@H]2CC=C(COc3ccc4c5c(c(=O)oc4c3)CCCC5)[C@H]1C2 |  | 77 | 78.2 | 5.1 | 380 | 4.9 |  |  |  | 6.17
CC(C)=CCCC(C)=CCn1cc(COc2ccc3c(-c4ccccc4)cc(=O)oc3c2)nn1 |  | 37 | 1.1 | 0.3 | 12.3 | 11.3 |  |  | 11.2 | 5.75
CC(C)=CCC/C(C)=C/Cn1cc(COc2ccc3c(C)cc(=O)oc3c2)nn1 |  | 2.5 | 1.8 | 6.1 | 15 | 8.2 |  |  | 0.151 | 6.17
CC1(C)[C@H]2CC=C(Cn3cc(COc4ccc5c6c(c(=O)oc5c4)CCCC6)nn3)[C@@H]1C2 |  | 50 | 23.3 | 0.6 | 30.1 | 1.3 | Weak_effect | Weak_effect |  | 
CC1(C)[C@H]2CC=C(Cn3cc(COc4ccc5c6c(c(=O)oc5c4)CCC6)nn3)[C@@H]1C2 |  | 0.4 | 1.1 | 629 | 278 | 256 |  |  |  | 
Cc1cc(=O)oc2cc(OCc3cn(CC4=CC[C@@H]5C[C@H]4C5(C)C)nn3)ccc12 |  | 3.3 | 2.9 | 6.6 | 22.2 | 7.6 |  |  |  | 
Cc1cc(=O)oc2cc(OCc3cn(CCC(C)CCCC(C)C)nn3)ccc12 (stereo not drawn) |  | 3.8 | 4.1 | 4.3 | 16.1 | 3.9 |  |  | 3.89 | 4.27
CC(C)=CCC/C(C)=C/CCOc1ccc2c3c(c(=O)oc2c1)CCCC3 |  | 90 | 85.2 | 0.57 | 51.1 | 0.6 |  |  |  | 
CC1(C)[C@@H]2CC=C(Cn3cc(COc4ccc5c6c(c(=O)oc5c4)CCCC6)nn3)[C@H]1C2 |  | 6.3 | 7.2 | 4.1 | 25.5 | 3.5 |  |  |  | 4.07
CC(C)=CCCC(C)=CCn1cc(COc2ccc3c4c(c(=O)oc3c2)CCC4)nn1 |  | 3.3 | 2.9 | 5.7 | 19.1 | 6.5 |  |  | 6.46 | 5.75
CC(C)c1ccc(Cn2cc(COc3ccc4c5c(c(=O)oc4c3)CCCC5)nn2)cc1 |  | 1.7 | 1.6 | 22.1 | 37.7 | 23.5 |  |  |  | 
CC(C)=CCC/C(C)=C/CCOc1ccc2c(C)cc(=O)oc2c1 |  | 10.3 | 9.2 | 46.7 | 483 | 52.4 |  |  |  | 
CC(C)=CCC/C(C)=C/CCOc1ccc2c3c(c(=O)oc2c1)CCC3 | 15.2 | < 1 | 1.8 | > 26 | 26.6 |  |  |  |  | 
CC(C)CCCC(C)CCn1cc(COc2ccc3c4c(c(=O)oc3c2)CCCC4)nn1 (stereo not drawn) |  | 6.1 | 4.9 | 3.7 | 22.2 | 4.5 |  |  | 4.47 | 3.72
CC1(C)[C@@H]2CC=C(COc3ccc4c5c(c(=O)oc4c3)CCC5)[C@H]1C2 | 5.1 | 100 | 81.6 | 4.1 | 416 |  |  |  |  | 
